Laboratory results: publication PMC12775434, “Ultra-large virtual screening unveils potent agonists of the neuromodulatory orphan receptor GPR139” (Nature Communications, 2025)
“And” between values parts separate entries of the source, which are not always exact repeats. Equal entries are not always repeated.

Columns and labels:
[1] = target: T1, GPR139 (Gi3 activation) (Homo sapiens, UniProt Q6DWJ6); test: BRET G protein activation (dissociation) assay, Gi3, HEK293A; format: cell-based; details: for G protein activation, Gi3: individual replicates
T1 construct: expressed in transfected cells; host or cells: HEK293A (transient, Lipofectamine 2000)
T1 sequence (Q6DWJ6 1-353): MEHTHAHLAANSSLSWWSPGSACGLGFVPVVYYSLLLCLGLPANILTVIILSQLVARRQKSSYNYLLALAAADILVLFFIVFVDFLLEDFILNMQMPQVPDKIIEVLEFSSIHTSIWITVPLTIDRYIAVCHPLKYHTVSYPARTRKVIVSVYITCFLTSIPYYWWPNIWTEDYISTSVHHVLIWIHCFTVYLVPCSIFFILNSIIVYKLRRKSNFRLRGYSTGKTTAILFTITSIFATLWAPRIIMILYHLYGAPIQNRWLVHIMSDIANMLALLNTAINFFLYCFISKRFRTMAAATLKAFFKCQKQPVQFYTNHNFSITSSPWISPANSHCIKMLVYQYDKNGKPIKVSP
Description: (§1) Primary screening and pharmacological characterization of compounds were performed using a CHO-K1 cell line that stably expresses human GPR139 (GPR139-CHOk1). The GPR139-CHOk1 cell line was kindly provided by H. Lundbeck A/S, Denmark[24]. GPR139-CHOk1 cells were grown in Ham’s F-12 Kaighn’s Modification Medium (ThermoFisher #21127030) supplemented with 10% dialyzed fetal bovine serum (US origin, ThermoFisher #26400044), 100 units/mL Penicillin-Streptomycin (ThermoFisher #15140122), and 1 mg/mL Geneticin (ThermoFisher #11811031). […] M1R-CHOk1 cells were purchased from The Missouri S&T cDNA Resource Center (#CEM100TN00). M1R-CHOk1 cells were grown in Ham’s F12 Medium (ThermoFisher #21765029) supplemented with 10% fetal bovine serum (Brazilian origin, ThermoFisher #10270106), 100 units/mL Penicillin-Streptomycin, and 0.25 mg/mL Geneticin. HEK293A cells transiently transfected with GPR139 were used for additional pharmacological assessment of signaling pathways activated by GPR139. HEK239A cells were generously provided by Dr. Asuka Inoue, Tohoku University, Japan. HEK293A cells were grown in Dulbecco’s Modified Eagle Medium (ThermoFisher #31966047) supplemented with 10% dialyzed fetal bovine serum and 100 units/mL Penicillin-Streptomycin. Cell lines were maintained at 37 °C in humidified incubator equilibrated with 5% CO2.
(§2) The G protein dissociation assay developed by the lab of Kirill A. Martemyanov was used to measure the coupling of multiple G proteins by GPR139[57]. The assay was performed as described previously with minor modifications. HEK293A cells were reverse transfected 20–24 h prior to assay. 50,000 cells were plated in each well of white opaque tissue culture treated 96-well plates (PerkinElmer #6005680) previously coated with poly-D-lysine. Transfection solutions were prepared as described, and 10 µL transfection solution was mixed with 100 µL cells in each well. The cells in each well were transfected with 18.9 ng GPR139, 6.3 ng Venus 1-155 Gγ2, 6.3 ng Venus 159-239 Gβ1, 6.3 ng masGRK3ct-NanoLuc and 12.6 ng Gαi2, 12.6 ng Gαi3, 12.6 ng GαoA, 12.6 ng Gαq or 25.2 ng Gα12 using 375 nL Lipofectamine 2000 Transfection Reagent. Transfections with Gαq and Gα12 contained 6.3 ng DNA of the active subunit S1 of pertussis toxin (PTX-S1). Each transfection was normalized to 150 ng total DNA with pcDNA3.1. The BRET biosensors were a kind gift from the Martemyanov lab. On the day of the experiment the cells were washed with HEPES buffer. Test compounds were diluted in HEPES buffer from DMSO stocks (final DMSO concentration of maximally 0.3%). NanoLuc Luciferase substrate NanoGlo—furimazine (Promega #N1120) was diluted 1000-fold (final) in HEPES buffer. NanoGlo and test compounds were added, and measurements were performed after 10 s for Gi3, 15 s for Gi2 and GoA, 20 s for Gq, and 90 s for G12—the timepoint where maximal signal occurred with each G protein, ensuring proper determination of the potency for the G protein coupling. Simultaneous dual emission was measured at 535 nm and 475 nm on LUMIstar Omega Microplate Reader (BMG Labtech) at room temperature. The BRET ratio of 535 nm/475 nm (Venus/NanoLuc), reflecting the dissociation of the G protein heterotrimer, was used to determine the G protein activation. The basal BRET ratio obtained with buffer condition was subtracted from the absolute BRET ratio at a given test compound concentration, and the responses were normalized to the one obtained with 10 µM JNJ-63533054 for the activation of Gi2.
(§3) Pharmacological data and statistical analyses were performed in GraphPad Prism v9–10 (Graphpad Software Inc., San Diego, CA), which are also specifically described in the figure and table legends. […]

[2] = target: T2, GPR139 (GoA activation) (Homo sapiens, UniProt Q6DWJ6); test: BRET G protein activation (dissociation) assay, GoA, HEK293A; format: cell-based; details: for G protein activation, GoA: individual replicates
T2 construct: expressed in transfected cells; host or cells: HEK293A (transient, Lipofectamine 2000)
T2 sequence (Q6DWJ6 1-353): T1 sequence (Q6DWJ6 1-353)
Description: as §1, §2, §3

[3] = HEK293-A, normalized to JNJ-63533054 (JNJ(S))

Emax [1, 3]: 37 ± 1%
EC50 ([1]; Supplementary Table 6, read-out: pEC50 Gi3 (converted)): 0.794 µM
Emax [2, 3]: 75 ± 3%
EC50 ([2]; Supplementary Table 6): 0.794 µM
Compound: Cc1cscc1-c1nc(CC(=O)N[C@H](C)c2ccccc2)no1 [1.1(R)]
G protein activation, Gi3 ([1]; log [compound] M -4.5): 39 % of JNJ-63533054 at Gi2 and 35 % of JNJ-63533054 at Gi2 and 34 % of JNJ-63533054 at Gi2
G protein activation, Gi3 ([1]; log [compound] M -5.0): 33 % of JNJ-63533054 at Gi2 and 34 % of JNJ-63533054 at Gi2 (2×)
G protein activation, Gi3 ([1]; log [compound] M -5.5): 30 % of JNJ-63533054 at Gi2 (2×) and 24 % of JNJ-63533054 at Gi2
G protein activation, Gi3 ([1]; log [compound] M -6.0): 21 % of JNJ-63533054 at Gi2 and 22 % of JNJ-63533054 at Gi2 and 20 % of JNJ-63533054 at Gi2
G protein activation, Gi3 ([1]; log [compound] M -6.5): 11 % of JNJ-63533054 at Gi2 (2×) and 12 % of JNJ-63533054 at Gi2
G protein activation, Gi3 ([1]; log [compound] M -7.0): 1 % of JNJ-63533054 at Gi2 and 4.71 % of JNJ-63533054 at Gi2 and 3.32 % of JNJ-63533054 at Gi2
G protein activation, Gi3 ([1]; log [compound] M -7.5): -0.169 % of JNJ-63533054 at Gi2 and 1.37 % of JNJ-63533054 at Gi2 and 5.42 % of JNJ-63533054 at Gi2
G protein activation, Gi3 ([1]; log [compound] M -8.0): -2.27 % of JNJ-63533054 at Gi2 and 2 % of JNJ-63533054 at Gi2 and 10 % of JNJ-63533054 at Gi2
G protein activation, GoA ([2]; log [compound] M -4.5): 74 % of JNJ-63533054 at Gi2 and 67 % of JNJ-63533054 at Gi2 and 78 % of JNJ-63533054 at Gi2
G protein activation, GoA ([2]; log [compound] M -5.0): 69 % of JNJ-63533054 at Gi2 and 63 % of JNJ-63533054 at Gi2 and 75 % of JNJ-63533054 at Gi2
G protein activation, GoA ([2]; log [compound] M -5.5): 62 % of JNJ-63533054 at Gi2 and 48 % of JNJ-63533054 at Gi2 and 61 % of JNJ-63533054 at Gi2
G protein activation, GoA ([2]; log [compound] M -6.0): 47 % of JNJ-63533054 at Gi2 and 34 % of JNJ-63533054 at Gi2 and 45 % of JNJ-63533054 at Gi2
G protein activation, GoA ([2]; log [compound] M -6.5): 19 % of JNJ-63533054 at Gi2 and 16 % of JNJ-63533054 at Gi2 and 26 % of JNJ-63533054 at Gi2
G protein activation, GoA ([2]; log [compound] M -7.0): 7.39 % of JNJ-63533054 at Gi2 and 4 % of JNJ-63533054 at Gi2 and 10 % of JNJ-63533054 at Gi2
G protein activation, GoA ([2]; log [compound] M -7.5): 0.895 % of JNJ-63533054 at Gi2 and 2 % of JNJ-63533054 at Gi2 and 3.63 % of JNJ-63533054 at Gi2
G protein activation, GoA ([2]; log [compound] M -8.0): -4.44 % of JNJ-63533054 at Gi2 and -2.19 % of JNJ-63533054 at Gi2 and 2.68 % of JNJ-63533054 at Gi2
